Patent US20230330004A1, “COMPOSITION COMPRISING GINSENG EXTRACT FOR REFORMING SKIN MICROBIOTA” (KOREA GINSENG CORP., priority 2020, published 2023)

Columns and labels:
[1] = tested on: Staphylococcus epidermidis; assay: Growth of beneficial skin microbes, absorbance at 600 nm (Experimental Example 2); assay type: cell-based; settings: for Effect of selectively promoting the growth of beneficial microbes rather than harmful microbes (in words): S. epidermidis versus S. aureus, from Table 2; for Effect of promoting the growth of beneficial microbes (in words): S. epidermidis, compared to the composition of the present invention; for OD600 (Beneficial microbes): Staphylococcus epidermidis, incubated 24 hours in shaking incubator, absorbance at 600 nm; for Increase in beneficial microbes versus harmful microbes: ratio of OD600 S. epidermidis / S. aureus, 24 hours
Protocol: (§1) To compare the compositions of Example and Comparative Examples in terms of the increase in growth of beneficial skin microbes versus harmful skin microbes, the growth of each microbe was measured by the same method as described in Experimental Example 1. Specifically, using Staphylococcus epidermidis as beneficial skin microbes, and Staphylococcus aureus (Strain number 39149, Korean Collection for Type Cultures) as harmful skin microbes, samples were inoculated respectively and incubated for 24 hours in a shaking incubator. Solutions with the strains grown therein were each collected and centrifuged, and after removing the supernatant therefrom, an equivalent amount of a saline solution was added to prepare a bacterial solution.

[2] = tested on: Staphylococcus aureus (Strain number 39149, Korean Collection for Type Cultures); assay: Growth of harmful skin microbes, absorbance at 600 nm (Experimental Example 2); assay type: cell-based; settings: incubated 24 hours in shaking incubator
Protocol: as §1

`CC(=O)N[C@H]1[C@H]([C@H](O)[C@H](O)CO)O[C@@](OC[C@H]2O[C@@H](O[C@H]3[C@H](O)[C@@H](O)C(O)O[C@@H]3CO)[C@H](O)[C@@H](O)[C@H]2O)(C(=O)O)C[C@@H]1O` (stereo partly shown) [Comparative Example 3, 6-Sialyllactose] was tested, and the “Effect of selectively promoting the growth of beneficial microbes rather than harmful microbes (in words)” value [1] was “low”, the “Effect of promoting the growth of beneficial microbes (in words)” value [1] was “negligible” and the “OD600 (Beneficial microbes)” value [1] was 0.047. The “Increase in beneficial microbes versus harmful microbes” value [1] was “×0.723” and the “OD600 (Harmful microbes)” value [2] was 0.065.

For 3-Sialyllactose [Comparative Example 2], the “Effect of selectively promoting the growth of beneficial microbes rather than harmful microbes (in words)” value [1] was “low”, the “Effect of promoting the growth of beneficial microbes (in words)” value [1] was “negligible” and the “OD600 (Beneficial microbes)” value [1] was 0.049. For the same compound, the “Increase in beneficial microbes versus harmful microbes” value [1] was “×0.636” and the “OD600 (Harmful microbes)” value [2] was 0.077.
